Patent US20140243273A1, “METHODS FOR TREATING INFLAMMATORY DISEASES AND PHARMACEUTICAL COMBINATIONS USEFUL THEREFOR” (Vertex Pharmaceuticals Incorporated, priority 2011, published 2014)

Tests used:
JAK3 = target: T1, JAK3 (Homo sapiens, UniProt P52333); test: JAK3 Inhibition Assay; assay type: biochemical; conditions: 1 nM JAK3, 1 μM poly(Glu)4Tyr, 5 μM ATP, 25° C.; kind of constant not given
T1 sequence (P52333 1-1124): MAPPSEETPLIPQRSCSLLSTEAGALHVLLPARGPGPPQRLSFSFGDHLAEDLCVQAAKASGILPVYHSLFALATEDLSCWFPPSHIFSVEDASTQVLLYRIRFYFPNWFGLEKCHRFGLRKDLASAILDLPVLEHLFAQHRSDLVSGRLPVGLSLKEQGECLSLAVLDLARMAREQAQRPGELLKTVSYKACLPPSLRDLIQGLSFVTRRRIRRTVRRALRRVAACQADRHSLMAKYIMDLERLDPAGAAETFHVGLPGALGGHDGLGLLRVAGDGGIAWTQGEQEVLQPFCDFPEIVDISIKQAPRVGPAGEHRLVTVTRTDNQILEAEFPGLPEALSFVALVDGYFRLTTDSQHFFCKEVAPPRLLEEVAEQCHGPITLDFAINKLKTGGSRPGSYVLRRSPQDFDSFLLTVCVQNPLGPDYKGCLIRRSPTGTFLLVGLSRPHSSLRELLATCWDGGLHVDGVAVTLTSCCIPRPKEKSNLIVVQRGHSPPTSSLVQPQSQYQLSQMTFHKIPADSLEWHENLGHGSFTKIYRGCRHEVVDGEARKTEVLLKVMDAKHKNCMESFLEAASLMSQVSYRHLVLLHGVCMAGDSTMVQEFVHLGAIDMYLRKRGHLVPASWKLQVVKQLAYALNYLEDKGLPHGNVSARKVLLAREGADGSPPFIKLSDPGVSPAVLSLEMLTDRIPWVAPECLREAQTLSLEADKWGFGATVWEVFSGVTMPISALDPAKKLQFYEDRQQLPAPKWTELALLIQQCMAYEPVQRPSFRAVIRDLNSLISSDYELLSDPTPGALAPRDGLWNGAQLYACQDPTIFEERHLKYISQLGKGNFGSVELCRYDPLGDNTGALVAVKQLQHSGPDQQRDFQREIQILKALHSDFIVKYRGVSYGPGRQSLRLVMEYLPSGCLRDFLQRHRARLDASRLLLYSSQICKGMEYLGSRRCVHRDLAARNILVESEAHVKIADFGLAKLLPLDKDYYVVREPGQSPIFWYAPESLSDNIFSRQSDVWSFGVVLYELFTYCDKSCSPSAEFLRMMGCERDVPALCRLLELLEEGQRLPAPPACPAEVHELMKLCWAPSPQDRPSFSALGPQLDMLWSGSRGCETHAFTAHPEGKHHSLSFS
Procedure: (§1) Compounds were screened for their ability to inhibit JAK3 using the assay shown below. Reactions were carried out in a kinase buffer containing 100 mM HEPES (pH 7.4), 1 mM DTT, 10 mM MgCl2, 25 mM NaCl, and 0.01% BSA. Substrate concentrations in the assay were 5 μM ATP (200 uCi/μmole ATP) and 1 μM poly(Glu)4Tyr. Reactions were carried out at 25° C. and 1 nM JAK3.
(§2) To each well of a 96 well polycarbonate plate was added 1.5 μl of a compound of Formula I along with 50 μl of kinase buffer containing 2 μM poly(Glu)4Tyr and 10 μM ATP. This was then mixed and 50 μl of kinase buffer containing 2 nM JAK3 enzyme was added to start the reaction. After 15 minutes at room temperature (25° C.), the reaction was stopped with 50 μl of 20% trichloroacetic acid (TCA) that also contained 0.4 mM ATP. The entire contents of each well were then transferred to a 96 well glass fiber filter plate using a TomTek Cell Harvester. After washing, 60 μl of scintillation fluid was added and ^33P incorporation detected on a Perkin Elmer TopCount.

mouse colitis model = test: Mouse model for Crohn's disease and ulcerative colitis (CD4+CD25- T cell transfer into SCID mice); assay type: in vivo; conditions: compound no. 9 (methane sulfonic acid), 50, 100, 150 mpk b.i.d., oral gavage, days 19-33, SCID mice
Procedure: Female SCID mice received grafts of 2.5×10e5 CD4+CD25-T cells from naïve BALB/c wild type donors (all Charles River Laboratories) to induce colitis. On day 14, after cell transfer, the recipient SCID mice were tested for graft acceptance and mice without T cells removed from the study. On days 19-33, the recipient SCID mice were administered compound no. 9 (methane sulfonic acid) mixed with vehicle (1% HPMC-c5, 50 mM Na citrate, pH 3.0) in doses of 50, 100, and 150 mpk b.i.d. Control mice were administered either saline, vehicle (1% HPMC-c5, 50 mM Na citrate, pH 3.0), or 1 mpk dexamethasone, b.i.d. Doses were administered via oral gavage. On day 35, the mice were sacrificed.

JAK2 = JAK2 (Homo sapiens, UniProt O60674); test: JAK2 Inhibition Assay; assay type: biochemical; conditions: 5 nM JAK-2 enzyme, 15 μM poly(Glu)4Tyr, 12 μM ATP; kind of constant not given
Procedure: [The procedure below names another target; the source says it served here with some conditions changed.] as §1, §2

JAK2, sequence (O60674 whole entry, species assumed): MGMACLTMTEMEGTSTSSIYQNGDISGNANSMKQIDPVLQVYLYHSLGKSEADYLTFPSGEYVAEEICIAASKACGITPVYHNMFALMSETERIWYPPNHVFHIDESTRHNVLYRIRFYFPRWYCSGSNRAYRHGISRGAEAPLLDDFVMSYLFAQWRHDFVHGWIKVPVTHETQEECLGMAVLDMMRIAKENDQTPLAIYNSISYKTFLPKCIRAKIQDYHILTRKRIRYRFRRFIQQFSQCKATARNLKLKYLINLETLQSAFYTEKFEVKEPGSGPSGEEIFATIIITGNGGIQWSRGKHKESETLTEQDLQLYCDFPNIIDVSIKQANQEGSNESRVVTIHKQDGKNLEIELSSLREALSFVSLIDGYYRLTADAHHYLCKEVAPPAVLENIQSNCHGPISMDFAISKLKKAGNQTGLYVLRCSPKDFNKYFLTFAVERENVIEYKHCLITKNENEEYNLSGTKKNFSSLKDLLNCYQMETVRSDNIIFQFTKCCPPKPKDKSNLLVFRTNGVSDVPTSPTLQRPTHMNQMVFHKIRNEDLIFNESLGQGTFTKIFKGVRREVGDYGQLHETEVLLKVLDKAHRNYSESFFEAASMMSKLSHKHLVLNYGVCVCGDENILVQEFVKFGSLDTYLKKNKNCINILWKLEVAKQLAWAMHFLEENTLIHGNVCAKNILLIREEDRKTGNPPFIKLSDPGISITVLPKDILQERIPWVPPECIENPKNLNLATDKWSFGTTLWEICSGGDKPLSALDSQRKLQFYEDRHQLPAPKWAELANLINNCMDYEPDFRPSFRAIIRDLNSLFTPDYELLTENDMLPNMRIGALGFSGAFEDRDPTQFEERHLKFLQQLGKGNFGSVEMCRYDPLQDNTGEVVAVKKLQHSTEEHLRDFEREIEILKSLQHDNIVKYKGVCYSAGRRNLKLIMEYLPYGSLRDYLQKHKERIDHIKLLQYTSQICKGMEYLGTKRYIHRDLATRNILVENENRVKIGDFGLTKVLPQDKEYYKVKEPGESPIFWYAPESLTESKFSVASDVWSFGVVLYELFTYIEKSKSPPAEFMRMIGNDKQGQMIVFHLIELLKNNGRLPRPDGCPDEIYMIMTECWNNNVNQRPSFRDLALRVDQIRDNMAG

With CC(C)(Nc1ccnc(-c2c[nH]c3ncc(Cl)cc23)n1)C(=O)NCC(F)(F)F [Compound No. 9] the “JAK3 (μM), inhibition data” value (JAK3) was 0.001 µM, the colon histology (mouse colitis model) was “Improvements” and the colon pathology (mouse colitis model) was “improved”. The “frequency of splenic CD4+ T cells” value (mouse colitis model) was “significant reduction”, the inflammatory cytokine production (mouse colitis model; colon tissue) was “improved” and the “JAK2 (μM), inhibition data” value (JAK2) was 0.001 µM.
For CC[C@@](C)(Nc1ccnc(-c2c[nH]c3ncccc23)n1)C(=O)NCC(F)(F)F [compound 1], the “JAK3 (μM), inhibition data” value (JAK3) was 0.003 µM and the “JAK2 (μM), inhibition data” value (JAK2) was 0.015 µM.
CC(C)(Nc1ccnc(-c2c[nH]c3ncccc23)n1)C(=O)NCC(F)(F)F [compound 2] was tested, and the “JAK3 (μM), inhibition data” value (JAK3) was 0.0032 µM and the “JAK2 (μM), inhibition data” value (JAK2) was 0.028 µM.
With CC[C@](C)(Nc1nc(-c2c[nH]c3ncccc23)ncc1F)C(=O)NCC(F)(F)F [compound 3] the “JAK3 (μM), inhibition data” value (JAK3) was 0.0042 µM and the “JAK2 (μM), inhibition data” value (JAK2) was 0.028 µM.
CC(C)(Nc1nc(-c2c[nH]c3ncccc23)ncc1F)C(=O)NCC(F)(F)F [compound 4] was tested, and the “JAK3 (μM), inhibition data” value (JAK3) was 0.0056 µM and the “JAK2 (μM), inhibition data” value (JAK2) was 0.091 µM.
For CC(C)[C@](C)(Nc1ccnc(-c2c[nH]c3ncccc23)n1)C(=O)NCC(F)(F)F [compound 5], the “JAK3 (μM), inhibition data” value (JAK3) was 0.0024 µM and the “JAK2 (μM), inhibition data” value (JAK2) was 0.0042 µM.
CC(C)(Nc1ncnc(-c2c[nH]c3ncccc23)n1)C(=O)NCC(F)(F)F [compound 6] was tested, and the “JAK3 (μM), inhibition data” value (JAK3) was 0.0045 µM and the “JAK2 (μM), inhibition data” value (JAK2) was 0.046 µM.
With CCN(C)C(=O)[C@](C)(CC)Nc1ccnc(-c2c[nH]c3ncccc23)n1 [compound 7] the “JAK3 (μM), inhibition data” value (JAK3) was 0.018 µM and the “JAK2 (μM), inhibition data” value (JAK2) was 0.056 µM.
In the case of CCNC(=O)C(C)(C)Nc1ncnc(-c2c[nH]c3ncccc23)n1 [compound 8], the “JAK3 (μM), inhibition data” value (JAK3) is reported as 0.019 µM and the “JAK2 (μM), inhibition data” value (JAK2) is reported as 0.083 µM.
In the case of CC(C)[C@](C)(Nc1nc(-c2c[nH]c3ncc(Cl)cc23)ncc1F)C(=O)NCC(F)(F)F [compound 10], the “JAK3 (μM), inhibition data” value (JAK3) is reported as 0.002 µM and the “JAK2 (μM), inhibition data” value (JAK2) is reported as 0.001 µM.
In the case of CC(C)[C@@](C)(Nc1nc(-c2c[nH]c3ncc(Cl)cc23)ncc1F)C(=O)NCC(F)(F)F [compound 11], the “JAK3 (μM), inhibition data” value (JAK3) is reported as 0.006 µM and the “JAK2 (μM), inhibition data” value (JAK2) is reported as 0.055 µM.
In the case of CC[C@@](C)(Nc1nc(-c2c[nH]c3ncc(Cl)cc23)ncc1F)C(=O)NCC(F)(F)F [compound 12], the “JAK3 (μM), inhibition data” value (JAK3) is reported as 0.006 µM and the “JAK2 (μM), inhibition data” value (JAK2) is reported as 0.037 µM.
CC(C)(Nc1ncnc(-c2c[nH]c3ncc(Cl)cc23)n1)C(=O)NCC(F)(F)F [compound 13] was tested, and the “JAK3 (μM), inhibition data” value (JAK3) was 0.001 µM and the “JAK2 (μM), inhibition data” value (JAK2) was 0.003 µM.
With CC[C@](C)(Nc1ccnc(-c2c[nH]c3ncc(Cl)cc23)n1)C(=O)NCC(F)(F)F [compound 14] the “JAK3 (μM), inhibition data” value (JAK3) was 0.003 µM and the “JAK2 (μM), inhibition data” value (JAK2) was 0.002 µM.
CC[C@](C)(Nc1nc(-c2c[nH]c3ncc(Cl)cc23)ncc1F)C(=O)NCC(F)(F)F [compound 15] was tested, and the “JAK3 (μM), inhibition data” value (JAK3) was 0.002 µM and the “JAK2 (μM), inhibition data” value (JAK2) was 0.001 µM.
In the case of CC[C@@](C)(Nc1ccnc(-c2c[nH]c3ncc(Cl)cc23)n1)C(=O)NCC(F)(F)F [compound 16], the “JAK3 (μM), inhibition data” value (JAK3) is reported as 0.002 µM and the “JAK2 (μM), inhibition data” value (JAK2) is reported as 0.01 µM.
In the case of CCNC(=O)C(C)(C)Nc1ccnc(-c2c[nH]c3ncc(Cl)cc23)n1 [compound 17], the “JAK3 (μM), inhibition data” value (JAK3) is reported as 0.001 µM and the “JAK2 (μM), inhibition data” value (JAK2) is reported as 0.003 µM.
With CC(C)[C@](C)(Nc1ccnc(-c2c[nH]c3ncc(Cl)cc23)n1)C(=O)NCC(F)(F)F [compound 18] the “JAK3 (μM), inhibition data” value (JAK3) was 0.001 µM and the “JAK2 (μM), inhibition data” value (JAK2) was 0.0007 µM.
In the case of CC(C)(Nc1nc(-c2c[nH]c3ncc(Cl)cc23)ncc1F)C(=O)NCC(F)(F)F [compound 19], the “JAK3 (μM), inhibition data” value (JAK3) is reported as 0.004 µM and the “JAK2 (μM), inhibition data” value (JAK2) is reported as 0.001 µM.
